Experimental findings from patent publication US8134015B2, “Compound inhibiting in vivo phosphorous transport and medicine containing the same” (Kyowa Hakko Kirin Co., Ltd., priority 2003, dated 2012) are described below.

For the experiment, the target named is T1, rat NaPi-2b (Rattus norvegicus, UniProt Q9JJ09).
T1 construct: expressed in transfected cells; host or cells: Xenopus oocytes injected with cRNA
T1 sequence (Q9JJ09 1-695): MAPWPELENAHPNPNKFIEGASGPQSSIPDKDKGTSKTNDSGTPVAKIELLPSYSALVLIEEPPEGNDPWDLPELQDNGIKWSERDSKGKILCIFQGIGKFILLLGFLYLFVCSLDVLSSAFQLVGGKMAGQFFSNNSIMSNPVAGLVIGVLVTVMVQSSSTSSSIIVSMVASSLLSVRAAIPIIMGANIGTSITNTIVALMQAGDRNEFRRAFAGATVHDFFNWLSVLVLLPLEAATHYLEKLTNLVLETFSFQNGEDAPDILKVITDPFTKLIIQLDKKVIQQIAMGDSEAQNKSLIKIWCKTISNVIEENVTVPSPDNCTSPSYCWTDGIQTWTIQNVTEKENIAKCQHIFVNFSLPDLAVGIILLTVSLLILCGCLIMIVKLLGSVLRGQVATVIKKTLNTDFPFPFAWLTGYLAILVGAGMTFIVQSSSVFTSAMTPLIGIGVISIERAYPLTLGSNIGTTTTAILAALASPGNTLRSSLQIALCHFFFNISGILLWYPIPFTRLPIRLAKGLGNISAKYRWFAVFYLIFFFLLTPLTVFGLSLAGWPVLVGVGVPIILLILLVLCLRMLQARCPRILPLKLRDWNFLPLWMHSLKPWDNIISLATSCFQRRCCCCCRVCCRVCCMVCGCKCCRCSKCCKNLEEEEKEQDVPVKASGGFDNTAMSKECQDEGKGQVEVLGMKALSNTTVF
Briefly: Sodium-dependent phosphate uptake of Xenopus oocytes which expressed NaPi-2b (32P). It is filed as cell-based. As to conditions: for IC50: Xenopus oocytes expressing rat NaPi-2b, 32P radioactive phosphorus, read-out: IC50 (phosphate uptake inhibitory activity). The method, boiled down: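 Percent inhibition at 300 μM and 100 μM comes from the same inhibition curve of 32P uptake. Assay used oocytes expressing rat NaPi-2b after 2 days of culture.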

The mark [1] stands for this setting: phosphate uptake, oocytes expressing rat NaPi-2b, 300 μM, determined from inhibition curve.

The IC50 is the point on the concentration scale where inhibition reaches its midpoint. Take `Cc1ccc(/C=N/n2c(-c3cccc(CSCCO)c3)nc3ccc(Br)cc3c2=O)cc1C` [Compound 697, 6-Bromo-3-[(3,4-dimethyl-benzylidene-)-amino]-2-[3-(2-hydroxy-ethylsulfanylmethyl)-phenyl]-3H-quinazolin-4-one]: the half-maximal inhibitory concentration (IC50) was under 3 µM.
For the compound `O=c1c2cc(Br)ccc2nc(-c2cccc(CSCCO)c2)n1/N=C/c1ccc(Cl)c(C(F)(F)F)c1` [Compound 698, 6-Bromo-3-[(4-chloro-3-trifluoromethyl-benzylidene-)-amino]-2-[3-(2-hydroxy-ethylsulfanylmethyl)-phenyl]-3H-quinazolin-4-one], the concentration for half-maximal inhibition (IC50) is under 3 µM.
By inhibition is commonly meant the drop in the measured response relative to a control, in per cent. Regarding `Cc1cccc(/C=N/NC(=O)c2cc(Cl)ccc2NC(=O)c2cccc(CSCc3ccco3)c2)c1` [Compound 699, N-[4-Chloro-2-(3-methyl-benzylidene-hydrazinocarbonyl)-phenyl]-3-(furan-2-ylmethylsulfanylmethyl)-benzamide], 300 µM produced 58.4% inhibition under setting [1].
The compound `O=C(Nc1ccc(Cl)cc1C(=O)N/N=C/c1ccc(Cl)c(C(F)(F)F)c1)c1cccc(CSCc2ccco2)c1` [Compound 700, N-[4-Chloro-2-(4-chloro-3-trifluoromethyl-benzylidene-hydrazinocarbonyl)-phenyl]-3-(furan-2-ylmethylsulfanylmethyl)-benzamide] returned an inhibition at 300 µM under setting [1] of 40.3%.
Turning to `CN(CCCN(C)Cc1cccc(C(=O)Nc2ccc(Cl)cc2C(=O)N/N=C/c2ccc(F)cc2)c1)Cc1cccc(C(=O)Nc2ccc(Cl)cc2C(=O)N/N=C/c2ccc(F)cc2)c1` [Compound 701, N1-[4-Chloro-2-({2-[(E)-1-(4-fluorophenyl)methylidene]-hydrazino}carbonyl}phenyl}-3-{[{3-[(3-{[4-chloro-2-([2-[(E)-1-(4-fluorophenyl)methylidene]hydrazino}carbonyl}anilino}carbonyl}benzyl}-(methyl)amino)propyl)(methyl)amino]methyl]benzamide], testing at 300 µM under setting [1] gave an inhibition of 54%.
Under setting [1], `Cc1ccc(/C=N/NC(=O)c2cc(Cl)ccc2NC(=O)c2cccc(CN(C)CCCN(C)Cc3cccc(C(=O)Nc4ccc(Cl)cc4C(=O)N/N=C/c4ccc(C)cc4)c3)c2)cc1` [Compound 702, N1-[4-Chloro-2-({2-[(E)-1-(4-methylphenyl)methylidene]-hydrazino}carbonyl}phenyl}-3-{[{3-[(3-{[4-chloro-2-({2-[(E)-1-(4-methylphenyl)methylidene]hydrazino}carbonyl}anilino}carbonyl}benzyl}(methyl)amino)propyl)(methyl)amino]methyl]benzamide] displayed an inhibition at 300 µM of 49.2%.
Compound `O=c1c2cc(Cl)ccc2nc(-c2cccc(CSCCS(=O)(=O)O)c2)n1/N=C/c1ccc(Cl)c(C(F)(F)F)c1` [Compound 703, 2-(3-{6-Chloro-3-[(4-chloro-3-trifluoromethyl-benzylidene)-amino]-4-oxo-3,4-dihydro-quinazolin-2-yl}-benzylsulfanyl)-ethanesulfonic acid] returned an inhibition at 300 µM under setting [1] of 57.9%.
Consider `CN(CCCCCCN(C)Cc1cccc(C(=O)Nc2ccc(Cl)cc2C(=O)N/N=C/c2cccc(F)c2)c1)Cc1cccc(C(=O)Nc2ccc(Cl)cc2C(=O)N/N=C/c2cccc(F)c2)c1` [Compound 704, N1-[4-Chloro-2-({2-[(E)-1-(3-fluorophenyl)methylidene]hydrazino}carbonyl}phenyl}-3-{[{6-[(3-{[4-chloro-2-({2-[(E)-1-(3-fluorophenyl)methylidene]hydrazino}carbonyl}-anilino}carbonyl}benzyl}(methyl)amino)hexyl)(methyl)amino]methyl]-benzamide], for which at 300 µM the inhibition under setting [1] was 46.6%.
Under setting [1], `Cc1cccc(/C=N/NC(=O)c2cc(Cl)ccc2NC(=O)c2cccc(CN(C)CCCCCCN(C)Cc3cccc(C(=O)Nc4ccc(Cl)cc4C(=O)N/N=C/c4cccc(C)c4)c3)c2)c1` [Compound 705, N1-[4-Chloro-2-({2-[(E)-1-(3-methylphenyl)methylidene]hydrazino}carbonyl}phenyl}-3-{[{6-[(3-{[4-chloro-2-({2-[(E)-1-(3-methylphenyl)methylidene]hydrazino}carbonyl}-anilino}carbonyl}benzyl}(methyl)amino)hexyl)(methyl)amino]methyl]-benzamide] had an inhibition at 300 µM of 44.7%.
`Cc1ccc(/C=N/NC(=O)c2cc(Cl)ccc2NC(=O)c2cccc(CN(C)CCCCCCN(C)Cc3cccc(C(=O)Nc4ccc(Cl)cc4C(=O)N/N=C/c4ccc(C)cc4)c3)c2)cc1` [Compound 706, N1-[4-Chloro-2-({2-[(E)-1-(4-methylphenyl)methylidene]hydrazino}carbonyl}phenyl}-3-{[{6-[(3-{[4-chloro-2-({2-[(E)-1-(4-methylphenyl)methylidene]hydrazino}carbonyl}-anilino}carbonyl}benzyl}(methyl)amino)hexyl)(methyl)amino]methyl]-benzamide] returned an inhibition at 300 µM under setting [1] of 47.8%.
In the case of `Cc1csc(C(=O)N/N=C/c2ccc(Cl)c(C(F)(F)F)c2)c1NC(=O)c1cccc(CN(CC(C)O)CC(C)O)c1` (centres unmarked) [Compound 707, 3-{[Bis-(2-hydroxy-propyl)-amino]-methyl}-N-[2-(4-chloro-3-trifluoromethyl-benzylidene-hydrazinocarbonyl)-4-methyl-thiophen-3-yl]-benzamide], testing at 300 µM under setting [1] gave an inhibition of 41.2%.
`O=C(Nc1ccc(Cl)cc1C(=O)N/N=C/c1ccc(F)cc1)c1cccc(CSCCS(=O)(=O)O)c1` [Compound 708, 2-{3-[4-Chloro-2-(4-fluoro-benzylidene-hydrazinocarbonyl)-phenylcarbamoyl]-benzylsulfanyl}-ethanesulfonic acid]: the inhibition at 300 µM under setting [1] turned out to be 42%.
Under setting [1], `O=C(Nc1ccc(Cl)cc1C(=O)N/N=C/c1ccc(Cl)c(C(F)(F)F)c1)c1cccc(CSCCS(=O)(=O)O)c1` [Compound 709, 2-{3-[4-Chloro-2-(4-chloro-3-trifluoromethyl-benzylidene-hydrazinocarbonyl)-phenylcarbamoyl]-benzylsulfanyl}-ethanesulfonic acid] gave an inhibition at 300 µM of 59.4%.
Turning to `CCN(CC)CCN(C)Cc1cccc(C(=O)Nc2c(C)csc2C(=O)N/N=C/c2ccc(C)cc2)c1` [Compound 710, 3-{[(2-Diethylamino-ethyl)-methyl-amino]-methyl}-N-[4-methyl-2-(4-methyl-benzylidene-hydrazinocarbonyl)-thiophen-3-yl]-benzamide], at 300 µM the inhibition under setting [1] was 83.1%.
On to `CCN(CC)CCN(C)Cc1cccc(C(=O)Nc2c(C)csc2C(=O)N/N=C/c2ccc(C)c(C)c2)c1` [Compound 711, 3-{[(2-Diethylamino-ethyl)-methyl-amino]-methyl}-N-[2-(3,4-dimethyl-benzylidene-hydrazinocarbonyl)-4-methyl-thiophen-3-yl]-benzamide], for which, under setting [1], 300 µM produced 81% inhibition.
With `CCN(CC)CCN(C)Cc1cccc(C(=O)Nc2c(C)csc2C(=O)N/N=C/c2ccc(OC)cc2)c1` [Compound 712, 3-{[(2-Diethylamino-ethyl)-methyl-amino]-methyl}-N-[2-(4-methoxy-benzylidene-hydrazinocarbonyl)-4-methyl-thiophen-3-yl]-benzamide], the “Inhibition (%) (300 μM)” value under setting [1] is given as 48.73%.
As to `O=C(Nc1ccc(Br)cc1C(=O)N/N=C/c1cccc(F)c1)c1ccc(CNCCN2CCOCC2)cc1` [Compound 713, N-[4-Bromo-2-(3-fluoro-benzylidene-hydrazinocarbonyl)-phenyl]-4-[(2-morpholin-4-yl-ethylamino)-methyl]-benzamide], the half-maximal inhibitory concentration (IC50) came to 15.5 µM.
